Measurements: PubChem BioAssay AID328 (DTP/NCI, 2004)
Several values for one entry are separate records, joined by “and”; a condition that tells them apart may be missing. Equal values may be shown once. Toxic doses and inconclusive results are not listed.

System: BDF1 mice, P388 leukemia ip, median survival T/C
Experiment: NCI In Vivo Anticancer Drug Screen. Data for tumor model P388 Leukemia (intraperitoneal) in B6D2F1 (BDF1) mice
Conditions: endpoint: median survival time, higher = longer survival
Summary of the method: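 Mice carrying the transplantable tumour receive compound or vehicle. Survival is followed in each arm, and the treated measure is divided by the vehicle measure.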

[1] = dose: 200.0 mg/kg/injection, schedule: Q01DX001 (ip), vehicle: other
[2] = dose: 400.0 mg/kg/injection, schedule: Q01DX001 (ip), vehicle: other
[3] = dose: 100.0 mg/kg/injection, schedule: Q04DX003 (ip), vehicle: Klucel (hydroxypropylcellulose) (HPC)
[4] = dose: 400.0 mg/kg/injection, schedule: Q04DX003 (ip), vehicle: Klucel (hydroxypropylcellulose) (HPC)

C1=C\CCC2SC2CC/1 (stereo unspecified)
T/C (dose: 100.0 mg/kg/injection, schedule: Q04DX002 (ip), vehicle: saline): 100 % of control
T/C (dose: 200.0 mg/kg/injection, schedule: Q04DX002 (ip), vehicle: saline): 97 % of control
T/C (dose: 400.0 mg/kg/injection, schedule: Q04DX002 (ip), vehicle: saline): 100 % of control

COc1ccc(C2c3cc4c(c(OC)c3CC3OCC(=O)C32)OCO4)cc1OC (stereo unspecified)
T/C (dose: 44.8 mg/kg/injection, schedule: Q01DX010 (ip), vehicle: saline): 163 % of control
T/C (dose: 50.0 mg/kg/injection, schedule: Q01DX001 (ip), vehicle: saline): 100 % of control
T/C (dose: 89.5 mg/kg/injection, schedule: Q01DX010 (ip), vehicle: saline): 172 % of control
T/C (dose: 100.0 mg/kg/injection, schedule: Q01DX001 (ip), vehicle: saline): 109 % of control
T/C (dose: 100.0 mg/kg/injection, schedule: Q01DX010 (ip), vehicle: other): 172 % of control
T/C (dose: 179.0 mg/kg/injection, schedule: Q01DX010 (ip), vehicle: saline): 100 % of control
T/C [1]: 157 % of control
T/C (dose: 200.0 mg/kg/injection, schedule: Q01DX001 (ip), vehicle: saline): 104 % of control
T/C [2]: 189 % of control
T/C (dose: 400.0 mg/kg/injection, schedule: Q01DX001 (ip), vehicle: saline): 122 % of control

O=C1CCC(=O)N1C1c2ccccc2Oc2ccccc21
T/C (dose: 100.0 mg/kg/injection, schedule: Q01DX001 (ip), vehicle: other): 90 % of control
T/C [1]: 90 % of control
T/C [2]: 113 % of control

CC(=O)C[n+]1ccccc1C(c1ccccc1)c1ccccc1
T/C (dose: 12.5 mg/kg/injection, schedule: Q01DX005 (ip), vehicle: saline): 101 % of control
T/C (dose: 25.0 mg/kg/injection, schedule: Q01DX005 (ip), vehicle: saline): 92 % of control
T/C (dose: 50.0 mg/kg/injection, schedule: Q01DX005 (ip), vehicle: saline): 101 % of control

S=c1[nH]nc(-c2ccncc2)n1C1CCCCC1
T/C (dose: 50.0 mg/kg/injection, schedule: Q04DX002 (ip), vehicle: saline with Tween-80): 96 % of control
T/C (dose: 100.0 mg/kg/injection, schedule: Q04DX002 (ip), vehicle: saline with Tween-80): 92 % of control
T/C (dose: 200.0 mg/kg/injection, schedule: Q04DX002 (ip), vehicle: saline with Tween-80): 97 % of control

CC(C)c1ccc(NC(=O)Nc2cccc3ccccc23)cc1
T/C (dose: 50.0 mg/kg/injection, schedule: Q01DX001 (ip), vehicle: saline with Tween-80): 95 % of control
T/C (dose: 100.0 mg/kg/injection, schedule: Q01DX001 (ip), vehicle: saline with Tween-80): 109 % of control
T/C (dose: 200.0 mg/kg/injection, schedule: Q01DX001 (ip), vehicle: saline with Tween-80): 100 % of control

O=C1CSC(c2ccccc2)N1 (stereo unspecified)
T/C (dose: 100.0 mg/kg/injection, schedule: Q01DX009 (ip), vehicle: Klucel (hydroxypropylcellulose) (HPC)): 103 % of control
T/C [3]: 100 % of control
T/C (dose: 200.0 mg/kg/injection, schedule: Q01DX009 (ip), vehicle: Klucel (hydroxypropylcellulose) (HPC)): 103 % of control
T/C (dose: 400.0 mg/kg/injection, schedule: Q01DX009 (ip), vehicle: Klucel (hydroxypropylcellulose) (HPC)): 96 % of control
T/C [4]: 96 % of control

O=C(Cc1ccc([N+](=O)[O-])cc1)c1ccccc1
T/C [3]: 112 % of control
T/C (dose: 200.0 mg/kg/injection, schedule: Q04DX003 (ip), vehicle: Klucel (hydroxypropylcellulose) (HPC)): 104 % of control
T/C [4]: 91 % of control

CC1CNC(=O)O1 (stereo unspecified)
T/C (dose: 100.0 mg/kg/injection, schedule: Q04DX003 (ip), vehicle: saline): 115 % of control
T/C (dose: 200.0 mg/kg/injection, schedule: Q04DX003 (ip), vehicle: saline): 110 % of control
T/C (dose: 400.0 mg/kg/injection, schedule: Q04DX003 (ip), vehicle: saline): 95 % of control

CCCOP(=O)(OCCC)C(OC(=O)C(C)C)=C(C)C
T/C (dose: 100.0 mg/kg/injection, schedule: Q04DX003 (ip), vehicle: saline with Tween-80): 120 % of control
T/C (dose: 200.0 mg/kg/injection, schedule: Q04DX003 (ip), vehicle: saline with Tween-80): 105 % of control

CS(=O)(=O)OCCC(=O)NCNC(=O)CCOS(C)(=O)=O
T/C (dose: 9.0 mg/kg/injection, schedule: Q04DX003 (ip), vehicle: Klucel (hydroxypropylcellulose) (HPC)): 100 % of control
T/C (dose: 12.0 mg/kg/injection, schedule: Q04DX003 (ip), vehicle: Klucel (hydroxypropylcellulose) (HPC)): 113 % of control
T/C (dose: 12.5 mg/kg/injection, schedule: Q01DX009 (ip), vehicle: Klucel (hydroxypropylcellulose) (HPC)): 150 % of control
T/C (dose: 13.0 mg/kg/injection, schedule: Q04DX003 (ip), vehicle: Klucel (hydroxypropylcellulose) (HPC)): 113 % of control
T/C (dose: 22.0 mg/kg/injection, schedule: Q01DX009 (ip), vehicle: Klucel (hydroxypropylcellulose) (HPC)): 156 % of control
T/C (dose: 25.0 mg/kg/injection, schedule: Q01DX009 (ip), vehicle: Klucel (hydroxypropylcellulose) (HPC)): 172 % of control
T/C (dose: 25.0 mg/kg/injection, schedule: Q04DX003 (ip), vehicle: Klucel (hydroxypropylcellulose) (HPC)): 163 % of control
T/C (dose: 33.0 mg/kg/injection, schedule: Q01DX009 (ip), vehicle: Klucel (hydroxypropylcellulose) (HPC)): 176 % of control
T/C (dose: 33.0 mg/kg/injection, schedule: Q04DX003 (ip), vehicle: Klucel (hydroxypropylcellulose) (HPC)): 155 % of control and 171 % of control
T/C (dose: 50.0 mg/kg/injection, schedule: Q01DX009 (ip), vehicle: Klucel (hydroxypropylcellulose) (HPC)): 168 % of control and 218 % of control
T/C (dose: 50.0 mg/kg/injection, schedule: Q04DX003 (ip), vehicle: Klucel (hydroxypropylcellulose) (HPC)): 181 % of control and 185 % of control and 195 % of control
T/C (dose: 75.0 mg/kg/injection, schedule: Q01DX009 (ip), vehicle: Klucel (hydroxypropylcellulose) (HPC)): 124 % of control
T/C (dose: 75.0 mg/kg/injection, schedule: Q04DX003 (ip), vehicle: Klucel (hydroxypropylcellulose) (HPC)): 190 % of control and 214 % of control
